Values of other authors as cited in US6846831B2, “Method of treating the syndrome of lipodystrophy” (CPD, LLC, priority 2000, dated 2005).

What was measured:
κ opioid receptor = κ opioid receptor (Rattus norvegicus, UniProt P34975); settings: read-out: κ IC50; homogenates of rat brain minus cerebellum; prototype ligand EKC
δ opioid receptor = δ opioid receptor (Rattus norvegicus, UniProt P33533); settings: read-out: δ IC50; homogenates of rat brain minus cerebellum; prototype ligand DADLE
μ opioid receptor = μ opioid receptor (Rattus norvegicus, UniProt P33535); settings: read-out: μ IC50; homogenates of rat brain minus cerebellum; prototype ligand DHM
Chain of μ opioid receptor (P33535 whole entry): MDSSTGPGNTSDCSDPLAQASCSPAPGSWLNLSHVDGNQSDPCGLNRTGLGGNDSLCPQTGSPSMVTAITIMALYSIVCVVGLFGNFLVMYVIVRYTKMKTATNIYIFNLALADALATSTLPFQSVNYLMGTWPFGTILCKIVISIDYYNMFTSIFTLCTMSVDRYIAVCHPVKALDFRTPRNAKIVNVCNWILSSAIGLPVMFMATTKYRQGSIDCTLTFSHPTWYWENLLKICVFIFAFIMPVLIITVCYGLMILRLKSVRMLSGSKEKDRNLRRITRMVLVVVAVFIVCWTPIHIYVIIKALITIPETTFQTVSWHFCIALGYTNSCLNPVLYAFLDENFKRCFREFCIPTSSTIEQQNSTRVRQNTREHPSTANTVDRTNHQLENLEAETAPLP

Chain of κ opioid receptor (P34975 whole entry): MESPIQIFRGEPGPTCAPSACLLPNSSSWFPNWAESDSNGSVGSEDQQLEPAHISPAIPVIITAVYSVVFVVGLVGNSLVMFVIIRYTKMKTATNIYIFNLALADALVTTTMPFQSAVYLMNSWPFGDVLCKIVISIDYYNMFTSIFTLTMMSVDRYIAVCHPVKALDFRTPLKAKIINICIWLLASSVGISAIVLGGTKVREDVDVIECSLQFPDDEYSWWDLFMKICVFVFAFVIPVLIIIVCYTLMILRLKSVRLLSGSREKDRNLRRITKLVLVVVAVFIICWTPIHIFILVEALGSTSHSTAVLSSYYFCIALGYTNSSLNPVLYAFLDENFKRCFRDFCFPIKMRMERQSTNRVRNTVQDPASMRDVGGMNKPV
Chain of δ opioid receptor (P33533 whole entry): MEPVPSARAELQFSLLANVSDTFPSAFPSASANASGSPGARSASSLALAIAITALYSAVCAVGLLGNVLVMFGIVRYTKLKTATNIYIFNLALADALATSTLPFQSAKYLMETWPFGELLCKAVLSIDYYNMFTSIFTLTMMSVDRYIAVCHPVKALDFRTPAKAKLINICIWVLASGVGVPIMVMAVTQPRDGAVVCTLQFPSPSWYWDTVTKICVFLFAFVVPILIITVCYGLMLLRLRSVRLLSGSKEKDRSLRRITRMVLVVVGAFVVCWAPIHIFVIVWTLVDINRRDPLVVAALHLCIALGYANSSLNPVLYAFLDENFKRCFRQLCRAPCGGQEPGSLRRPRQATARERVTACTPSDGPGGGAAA

SMILES: C=C1CC[C@@]2(O)[C@H]3Cc4ccc(O)c5c4[C@@]2(CCN3CC2CC2)[C@H]1O5 [Nalmefene]
- IC50 (κ opioid receptor): 5.3 nM
- IC50 (δ opioid receptor): 6.1 nM
- IC50 (μ opioid receptor): 1 nM
